Source: US10561676B2, “Method for treating cancer using dual antagonists of CXCR1 and CXCR2” (Syntrix Biosystems, Inc., priority 2018, dated 2020)

How the values were obtained:
[1] = test system: isolated human neutrophils; test: CXCL8-mediated intracellular calcium flux in isolated human neutrophils; type: cell-based; conditions: Neutrophil, 25 nM CXCL8, mean ±SE
Method: Cells were incubated for 30 min at 37° C. […] The test compound or DMSO (control) was added again at the same concentrations that were used during cell loading.
The maximum change in fluorescence, expressed in arbitrary units over baseline (Max-Min), was used to determine the CXCL8 response.

[2] = Stability in human liver microsomes (NADPH-dependent); type: in vitro ADME
Method: The compounds were incubated in duplicate with human liver microsomes at 37° C. The reaction contained microsomal protein in 100 mM potassium phosphate, 2 mM NADPH, 3 mM MgCl2, pH 7.4. A control was run for each compound omitting NADPH to detect NADPH-independent degradation. An aliquot was removed from each experimental and control reaction at 0, 10, 20, 30, and 60 minutes and mixed with an equal volume of ice-cold Stop Solution (0.3% acetic acid in acetonitrile containing haloperidol, diclofenac, or other internal standard). Stopped reactions were incubated for at least ten minutes at −20° C., and an additional volume of water was added. The samples were centrifuged to remove precipitated protein, and the supernatants were analyzed by LCMS/MS to quantitate the remaining compound. Data were converted to percent remaining by dividing by the time zero concentration value. Data were fit to a first-order decay model to determine half-life. Intrinsic clearance was calculated from the half-life and the protein concentrations: CLint=ln(2)/(t½[microsomal protein]). […] More surprising is that eliminating the ring nitrogen in SX-517 yielded a half-life even larger than that of SX-682. The results as a whole led to no SAR predictive of the surprising stability of SX-682.

MDSCs = test: GROα-mediated MDSC migration; type: cell-based, mouse; conditions: 0.1, 1 and 10 μM, 100 ng/ml GROα, 12 hours
Method: Using the of method of Katoh 2013 to induce and isolate MDSCs, male BALBc mice were given a single intraperitoneal injection of azoxymethane (AOM, 10 mg/kg). Seven days later, these mice were given 4 cycles of water and water containing 1.25% dextran sulfate sodium (DSS). One cycle consisted of providing mice with regular drinking water for 7 days, followed by 1.25% aqueous DSS for 7 days, followed by regular drinking water for 7 days. MDSCs were isolated from femurs and blood of AOM/DSS-treated BALBc mice using the Myeloid-Derived Suppressor Cell Isolation Kit (Miltenyi Biotec) after lysis of red blood cells (RBC) according to the manufacturer's instructions. GROα (CXCL1) was placed in the bottom chamber of a 24-well plate at a concentration of 100 ng/ml. MDSCs isolated from blood of AOM/DSS-treated BALBc mice were seeded at a density of 1×10^6/well in the upper chamber (3 m, BD Falcon). After incubation for 12 hours, migrated cells were quantified by flow cytometry using COUNTBRIGHT™ Absolute Counting Beads (Molecular Probes). To evaluate the effect of SX-682 on GROα-mediated MDSC migration, aqueous DMSO solutions of SX-682 were added to the MDSC-seeded wells prior to migration. The test concentrations of SX-682 were 0.1, 1 and 10 μM, and the DMSO concentration was <1%.

[3] = test system: 60 human tumor cell line panel; test: 60 human tumor cell line panel proliferation (SRB); type: cell-based; conditions: 0.01-100 μM, 48 h
Method: The chemokine CXCL8 and its receptors CXCR1 and CXCR2 have been identified as important mediators of cellular proliferation for a number of tumor cell types.
The human tumor cell lines of the cancer screening panel were grown in RPMI 1640 medium containing 5% fetal bovine serum and 2 mM L-glutamine. […] After cell inoculation, the microtiter plates were incubated at 37° C., 5% CO2, 95% air and 100% relative humidity for 24 h prior to addition of SX-682.
After 24 h, two plates of each cell line are fixed in situ with TCA, to represent a measurement of the cell population for each cell line at the time of drug addition (Tz). […]
Following drug addition, the plates were incubated for an additional 48 h at 37° C., 5% CO2, 95% air, and 100% relative humidity. […] Bound stain was subsequently solubilized with 10 mM TRIS, and the absorbance was read on an automated plate reader at a wavelength of 515 nm. […] Using the seven absorbance measurements (time zero, (Tz), control growth, (C), and test growth in the presence of drug at the five concentration levels (Ti)), the percentage growth was calculated at each of the drug concentrations levels. Percentage growth inhibition was calculated as: (Ti−Tz)/(C−Tz)×100 for concentrations for which Ti>/=Tz (Ti−Tz)/Tz×100 for concentrations for which Ti<Tz.
Three dose response parameters were calculated for each experimental agent. […]

[4] = test system: B16-F10 syngeneic mouse model of melanoma; test: B16-F10 syngeneic mouse model of melanoma; type: in vivo
Method: The B16-F10 mouse model is an established model of melanoma, Overwijk, 2001, CURR PROTOC IMMUNOL, Chapter 20: Units 20-21 (herein incorporated by reference), which was used to evaluate the effect of SX-682 alone and in combination with anti-PD1 antibody. B16-F10 mouse melanoma cells were cultured, then mice were injected with 0.5×10^6 B16-F10 cells on day 0, and treatment was initiated on day 18. Mice were treated with vehicle (control), SX-682 alone (50 mg/kg twice daily, oral), anti-PD-1 alone (100 μg twice weekly, i.p.), or SX-682 in combination with anti-PD-1 (N=4-5 per cohort). SX-682 was used as a spray dried dispersion (Formulation Example 1), and was administered to mice via oral gavage as a suspension in 0.5% aq. methylcellulose. […] Data and error bars are the mean±SE.

[5] = test system: LLC syngeneic mouse model of lung cancer; test: LLC syngeneic mouse model of lung cancer; type: in vivo
Method: The Lewis lung carcinoma (LLC) mouse model (Kellar, 2015, Biomed Res Int, 2015:621324, herein incorporated by reference) was used to evaluate the effect of SX-682 alone and in combination with anti-PD-1 antibody. LLC mouse […] cells were cultured, then mice were injected with 0.5×10^6 LLC cells on day 0, and on day 18 treatment was initiated. Mice were treated with vehicle (control), SX-682 alone (50 mg/kg twice daily, oral), anti-PD-1 alone (100 μg twice weekly, i.p.), or SX-682 in combination with anti-PD-1 (N=5 per cohort). SX-682 was used as a spray dried dispersion (Formulation Example 1), and was administered to mice via oral gavage as a suspension in 0.5% aq. methylcellulose.

[6] = test system: TRIA mouse model of melanoma; test: TRIA mouse model of melanoma
Method: Treatment regimens were started following tumor manifestation. SX-682 was given orally via medicated feed, at an approximate dose of 10 mg/day/mouse. CP was administered once weekly via intraperitoneal injection at a dose of 50 mg/kg.

[7] = SX-682 50 mg/kg twice daily oral + anti-PD-1 100 μg twice weekly i.p.

O=C(Nc1ccc(F)cc1)c1cnc(SCc2cc(OC(F)(F)F)ccc2B(O)O)nc1 [SX-682, 2-(2-boronic acid-5-trifluoromethoxy-benzylsulfanyl)-pyrimidine-5-carboxylic acid (4-fluoro-phenyl)-amide]
IC50 [1]: 55 ± 6 nM | microsomal half-life larger than SX-671 or SX-576 [2]: 6 fold | microsomal CLint ([2]; pH 7.4, 37° C., NADPH-dependent, read-out: CLint, microsomal intrinsic clearance): 2.1 µL/min/mg | GROα-mediated MDSC migration (MDSCs): effectively inhibit GROα-mediated MDSC migration in a dose-dependent manner | tumor cell proliferation [3]: directly affect the proliferation of human tumor cells | tumor growth, SX-682 monotherapy ([4]; 50 mg/kg twice daily, oral): significantly slowed tumor growth | tumor growth, SX-682 in combination with anti-PD-1 [4, 7]: significantly better than either therapy alone | tumor growth, SX-682 monotherapy ([5]; 50 mg/kg twice daily, oral): significantly slowed tumor growth | tumor growth, SX-682 in combination with anti-PD-1 [5, 7]: significantly better than either therapy alone | survival, SX-682 in combination with anti-PD-1 ([5]; vs vehicle or anti-PD-1 alone, up to 66 days): significantly enhanced survival | tumor growth, SX-682 alone ([6]; 10 mg/day/mouse oral feed): significantly slowed tumor growth | complete remission (zero tumor volume), SX-682 combination with CP ([6]; SX-682 10 mg/day/mouse oral feed + CP 50 mg/kg weekly i.p.): 5 of 11
